Like-named read-outs stand apart in the source and are kept apart here.
Assays:
Assay type in all cases: in vivo, human
[1] = Comparison of DPC 333 pharmacokinetics by gender in fasted subjects; conditions: for half-life / AUC(0-inf) / Cmax / Tmax: human, plasma, oral, 225 mg; for half-life: harmonic mean ± pseudo-standard deviation; for AUC(0-inf) / Cmax: mean ± SD; for Tmax: read-out: Tmax (median)
Method: (§1) Blood samples were obtained pre-dose (0 hour) and 0.25, 0.5, 1, 1.5, 2, 2.5, 3, 4, 6, 8, 12, 18, 24, 36 and 48 hours post-dose administration. DPC 333 was quantified plasma extracts from these blood samples by a solid phase method followed by turbo ion spray liquid chromatography employing tandem mass spectroscopic detection (LC/MS/MS). The validated assay range for DPC 333 using 0.2 mL of plasma was 1.05 to 2098 nM. The assay was specific for DPC 333.
(§2) The following pharmacokinetic parameters for DPC 333 were assessed following a single dose administration of the DPC 333 oral dosage form to a subject: Cmax, Tmax, AUC, T1/2, Clo, and C12. Cmax is defined as the observed maximum plasma concentration. Tmax is defined as the time of observed maximum plasma concentration. AUC is defined as the area under the plasma concentration-time curve from time zero to time infinity; T1/2 is defined as the terminal disposition half-life.
Differences in pharmacokinetics of DPC 333 based upon gender were also examined. The following table provides a comparison of DPC 333 pharmacokinetics by gender in fasted subjects receiving a single dose of 225 mg of DPC 333.

[2] = Safety and tolerability of single oral doses of DPC 333 (AEs, clinical laboratory tests, ECGs, vital signs)
Method: (§3) The safety, tolerability, and pharmacokinetics of an oral dose form of DPC 333 were evaluated in a double-blind, placebo controlled, ascending single dose study in healthy male and female human subjects. Subjects in each cohort were randomized to receive either a single dose of DPC 333 (n=6) or placebo (n=2). Doses examined were 15, 25, 40, 80, 120, 225, 345, and 530 mg. Safety measurements included monitoring of AEs, standard clinical laboratory tests, ECGs, and vital sign measurements.

[3] = Double-blind, placebo controlled, ascending single dose pharmacokinetic study of oral DPC 333 in healthy subjects; conditions: single oral dose 80 mg, healthy volunteers, n = 12
[4] = as above; conditions: for half-life / Cmax / Tmax / AUC / AUC(0-inf) / concentration at 12 h: both sexes, human, plasma; for AUC: read-out: mean AUC from time zero to time infinity, range; for concentration at 12 h: read-out: C12 (plasma concentration at 12 hours) Mean
Method: as §3, §1, §2

[5] = Effect of food on pharmacokinetics of oral DPC 333, two period crossover study (fasted vs high-fat breakfast); conditions: for AUC(0-inf) / AUC(0-t) / Cmax: male, po, n = 6, mean ± SD
Method: as §1, §2
The effect of food on the safety, tolerability and pharmacokinetics of this oral dose form of DPC 333 was also examined in a randomized, open label, two period balanced crossover study in one cohort of male subjects. Each subject received a single oral 225 mg dose of DPC 333 on two occasions administered at least one week apart. On one occasion the dose was given in the fasted state and on the other occasion the dose was administered after a standard, high-fat breakfast meal. The following table provides pharmacokinetic data from this study.

[6] = female, Females (n = 6), Part 1: 225 mg (fasted)
[7] = male, Males (n = 6), Part 1: 225 mg (fasted)
[8] = male, Males (n = 6), Part 2: 225 mg (fasted)
[9] = single oral dose 15 mg, healthy volunteers, n = 6
[10] = single oral dose 25 mg, healthy volunteers, n = 6
[11] = single oral dose 40 mg, healthy volunteers, n = 6
[12] = single oral dose 80 mg, healthy volunteers, n = 12
[13] = single oral dose 120 mg, healthy volunteers, n = 6
[14] = single oral dose 225 mg, healthy volunteers, n = 6
[15] = single oral dose 345 mg, healthy volunteers, n = 6
[16] = single oral dose 530 mg, healthy volunteers, n = 6
[17] = administered with food compared to fasted state, 225 mg
[18] = fed/fasted, fasted treatment as the reference, 225 mg
[19] = human, plasma, 225 mg, Fasted, 225 mg single oral dose, male subjects
[20] = human, plasma, 225 mg, Fed (high-fat breakfast), 225 mg single oral dose, male subjects

Structure (SMILES): Cc1cc(COc2ccc([C@]3(N)CCN([C@H](CC(C)C)C(=O)NO)C3=O)cc2)c2ccccc2n1 [DPC 333, [1-(R)]-3-amino-N-hydroxy-alpha-(2-methylpropyl)-3-[4-[(2-methyl-4-quinolinyl)methoxy]phenyl]-2-oxo-1-pyrrolidineacetamide]
- differences in pharmacokinetics due to gender ([1]; fasted subjects, single dose of 225 mg): No apparent differences
- half-life [1, 6]: 5.93 ± 0.66 h
- AUC(0-inf) [1, 6]: 11.4 ± 2.17 µM·h
- Cmax [1, 6]: 6650 ± 1750 nM
- Tmax [1, 6]: 0.51 h
- half-life [1, 7]: 5.53 ± 0.88 h
- AUC(0-inf) [1, 7]: 7.89 ± 1.51 µM·h
- Cmax [1, 7]: 3140 ± 511 nM
- Tmax [1, 7]: 0.75 h
- half-life [1, 8]: 6.19 ± 1.21 h
- AUC(0-inf) [1, 8]: 12.5 ± 2.79 µM·h
- Cmax [1, 8]: 5700 ± 1420 nM
- Tmax [1, 8]: 0.5 h
- dose-related trends in safety parameters ([2]; all safety parameters measured, doses 15 to 530 mg): no dose-related mean trends observed
- discontinuations because of an AE / serious AEs ([2]; doses 15 to 530 mg): no discontinuations because of an AE nor any serious AEs reported
- criteria for an intolerable dose ([2]; doses evaluated, 15 to 530 mg): criteria for an intolerable dose were not achieved
- tolerability ([2]; oral dose form, healthy volunteers): well tolerates
- CLo (apparent oral clearance) Mean [3]: 57.3 L/h
- increase in mean AUC (time zero to time infinity) with dose ([4]; at a single dose greater than 225 mg): greater than proportional increase
- increase in exposure (AUC) with dose ([4]; at the 345 mg and 530 mg doses): greater-than-proportional increase
- half-life ([4]; oral, for the higher doses, read-out: mean half-life estimates (converted)): ~6 h
- half-life ([4]; oral, single dose administrations ranging from 15 mg to 530 mg, read-out: mean terminal disposition half-life (T1/2)): 2 to 7 h
- Cmax ([4]; oral, single dose of 15 mg, read-out: mean maximum plasma concentration (Cmax), range): 0.088 to 0.18 µM
- Tmax ([4]; oral, single dose of 15 mg, read-out: mean time of maximum plasma concentration (Tmax), range): 0.5 to 1 h
- AUC ([4]; oral, single dose of 25 mg): 0.45 to 0.9 µM·h
- Cmax ([4]; oral, single dose of 25 mg, read-out: mean maximum plasma concentration (Cmax), range): 0.17 to 0.435 µM
- Tmax ([4]; oral, single dose of 25 mg, read-out: mean time of maximum plasma concentration (Tmax), range): 0.5 to 1 h
- AUC ([4]; oral, single dose of 40 mg): 0.93 to 1.43 µM·h
- Tmax ([4]; oral, single dose of 40 mg, read-out: mean time of maximum plasma concentration (Tmax), range): 0.25 to 1 h
- Cmax ([4]; oral, single dose of 40 mg, upper limit in μM, read-out: mean maximum plasma concentration (Cmax), range): 0.355 to 0.655 µM
- AUC ([4]; oral, single dose of 80 mg): 2.25 to 4.16 µM·h
- Tmax ([4]; oral, single dose of 80 mg, read-out: mean time of maximum plasma concentration (Tmax), range): 0.5 to 1 h
- Cmax ([4]; oral, single dose of 80 mg, upper limit in μM, read-out: mean maximum plasma concentration (Cmax), range): 0.965 to 1.87 µM
- AUC ([4]; oral, single dose of 120 mg): 3.33 to 6.21 µM·h
- Cmax ([4]; oral, single dose of 120 mg, read-out: mean maximum plasma concentration (Cmax), range): 1.54 to 2.35 µM
- Tmax ([4]; oral, single dose of 120 mg, read-out: mean time of maximum plasma concentration (Tmax), range): 0.5 to 1 h
- AUC ([4]; oral, single dose of 225 mg): 6.38 to 9.4 µM·h
- Tmax ([4]; oral, single dose of 225 mg, read-out: mean time of maximum plasma concentration (Tmax), range): 0.5 to 1 h
- Cmax ([4]; oral, single dose of 225 mg, upper limit in μM, read-out: mean maximum plasma concentration (Cmax), range): 2.62 to 3.65 µM
- AUC ([4]; oral, single dose of 345 mg): 18.4 to 28.8 µM·h
- Cmax ([4]; oral, single dose of 345 mg, read-out: mean maximum plasma concentration (Cmax), range): 6.58 to 15.4 µM
- Tmax ([4]; oral, single dose of 345 mg, read-out: mean time of maximum plasma concentration (Tmax), range): 0.25 to 1 h
- AUC ([4]; oral, single dose of 530 mg): 22 to 39.5 µM·h
- Cmax ([4]; oral, single dose of 530 mg, read-out: mean maximum plasma concentration (Cmax), range): 9.45 to 18.1 µM
- Tmax ([4]; oral, single dose of 530 mg, read-out: mean time of maximum plasma concentration (Tmax), range): 0.5 to 1 h
- half-life ([4]; po, 15 mg, single oral dose 15 mg, healthy volunteers, n = 6, read-out: T½ Mean (harmonic mean) (converted)): 2.18 h
- half-life ([4]; po, 25 mg, single oral dose 25 mg, healthy volunteers, n = 6, read-out: T½ Mean (harmonic mean) (converted)): 2.86 h
- half-life ([4]; po, 40 mg, single oral dose 40 mg, healthy volunteers, n = 6, read-out: T½ Mean (harmonic mean) (converted)): 3.41 h
- half-life ([4]; po, 80 mg, single oral dose 80 mg, healthy volunteers, n = 12, read-out: T½ Mean (harmonic mean) (converted)): 4.05 h
- half-life ([4]; po, 120 mg, single oral dose 120 mg, healthy volunteers, n = 6, read-out: T½ Mean (harmonic mean) (converted)): 4.89 h
- half-life ([4]; po, 225 mg, single oral dose 225 mg, healthy volunteers, n = 6, read-out: T½ Mean (harmonic mean) (converted)): 5.53 h
- half-life ([4]; po, 345 mg, single oral dose 345 mg, healthy volunteers, n = 6, read-out: T½ Mean (harmonic mean) (converted)): 6.39 h
- half-life ([4]; po, 530 mg, single oral dose 530 mg, healthy volunteers, n = 6, read-out: T½ Mean (harmonic mean) (converted)): 6.04 h
- Tmax ([4]; oral administration, post dose, doses 15 to 530 mg, read-out: Tmax values): < 1 h
- AUC(0-inf) [4, 9]: 0.342 µM·h
- concentration at 12 h [4, 9]: 2.09 nM
- Cmax ([4]; single oral dose 15 mg, healthy volunteers, n = 6, read-out: Cmax Mean): 0.134 µM
- Tmax ([4]; single oral dose 15 mg, healthy volunteers, n = 6, read-out: Tmax Median): 0.75 h
- AUC(0-inf) [4, 10]: 0.676 µM·h
- concentration at 12 h [4, 10]: 4.41 nM
- Cmax ([4]; single oral dose 25 mg, healthy volunteers, n = 6, read-out: Cmax Mean): 0.303 µM
- Tmax ([4]; single oral dose 25 mg, healthy volunteers, n = 6, read-out: Tmax Median): 0.5 h
- AUC(0-inf) [4, 11]: 1.18 µM·h
- concentration at 12 h [4, 11]: 6.36 nM
- Cmax ([4]; single oral dose 40 mg, healthy volunteers, n = 6, read-out: Cmax Mean): 0.505 µM
- Tmax ([4]; single oral dose 40 mg, healthy volunteers, n = 6, read-out: Tmax Median): 0.5 h
- AUC(0-inf) [4, 12]: 3.2 µM·h
- concentration at 12 h [4, 12]: 20.4 nM
- Cmax ([4]; single oral dose 80 mg, healthy volunteers, n = 12, read-out: Cmax Mean): 1.42 µM
- Tmax ([4]; single oral dose 80 mg, healthy volunteers, n = 12, read-out: Tmax Median): 0.5 h
- AUC(0-inf) [4, 13]: 4.77 µM·h
- concentration at 12 h [4, 13]: 30.3 nM
- Cmax ([4]; single oral dose 120 mg, healthy volunteers, n = 6, read-out: Cmax Mean): 1.94 µM
- Tmax ([4]; single oral dose 120 mg, healthy volunteers, n = 6, read-out: Tmax Median): 0.5 h
- AUC(0-inf) [4, 14]: 7.89 µM·h
- concentration at 12 h [4, 14]: 49 nM
- Cmax ([4]; single oral dose 225 mg, healthy volunteers, n = 6, read-out: Cmax Mean): 3.14 µM
- Tmax ([4]; single oral dose 225 mg, healthy volunteers, n = 6, read-out: Tmax Median): 0.75 h
- AUC(0-inf) [4, 15]: 23.6 µM·h
- concentration at 12 h [4, 15]: 153 nM
- Cmax ([4]; single oral dose 345 mg, healthy volunteers, n = 6, read-out: Cmax Mean): 11 µM
- Tmax ([4]; single oral dose 345 mg, healthy volunteers, n = 6, read-out: Tmax Median): 0.75 h
- AUC(0-inf) [4, 16]: 30.8 µM·h
- concentration at 12 h [4, 16]: 167 nM
- Cmax ([4]; single oral dose 530 mg, healthy volunteers, n = 6, read-out: Cmax Mean): 13.8 µM
- Tmax ([4]; single oral dose 530 mg, healthy volunteers, n = 6, read-out: Tmax Median): 0.5 h
- CLo (apparent oral clearance) Mean [4, 9]: 98.0 L/h
- CLo (apparent oral clearance) Mean [4, 10]: 85.7 L/h
- CLo (apparent oral clearance) Mean [4, 11]: 74.5 L/h
- CLo (apparent oral clearance) Mean [4, 13]: 56.0 L/h
- CLo (apparent oral clearance) Mean [4, 14]: 61.6 L/h
- CLo (apparent oral clearance) Mean [4, 15]: 32.0 L/h
- CLo (apparent oral clearance) Mean [4, 16]: 38.6 L/h
- oral absorption ([4]; upon oral administration): rapidly and well absorbed
- decrease in AUC with food [5, 17]: about 23%
- decrease in Cmax with food [5, 17]: about 40%
- AUC (0-t) Geometric Mean Ratio [5, 18]: 0.767
- AUC (0-∞) Geometric Mean Ratio [5, 18]: 0.767
- Cmax Geometric Mean Ratio [5, 18]: 0.597
- Tmax ([5]; human, plasma, Fasted, 225 mg single oral dose, male subjects, n = 6, read-out: Tmax (median)): 0.5 h
- AUC(0-inf) [5, 19]: 12.5 ± 2.79 µM·h
- AUC(0-t) [5, 19]: 12.4 ± 2.79 µM·h
- Cmax [5, 19]: 5700 ± 1420 nM
- AUC(0-inf) [5, 20]: 9.49 ± 1.71 µM·h
- AUC(0-t) [5, 20]: 9.48 ± 1.71 µM·h
- Cmax [5, 20]: 3410 ± 832 nM

Source: US20030232079A1, “DPC 333 formulation having unique biopharmaceutical characteristics” (priority 2002, published 2003)
